Test results: patent US9145391B2, “Bipyridylaminopyridines as Syk inhibitors” (Merck Sharp & Dohme Corp., priority 2011, dated 2015)

target: recombinant human GST-Syk (Homo sapiens (Human), UniProt P43405); assay: Homogeneous Time-Resolved Fluorescence (HTRF) assay for the recombinant human Syk enzyme; assay type: biochemical; conditions: recombinant human GST-Syk 5 pM, ATP 25 μM, read-out: rhSyk IC50
Outline: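 Recombinant GST-hSyk fusion protein kinase activity was read by HTRF. Reactions were started with biotinylated substrate peptide at 250 nM final, Mg 5 mM final and ATP 25 μM final. Potency derived from inhibition of substrate phosphorylation.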

| SMILES | IC50 |
| --- | --- |
| Cc1cc(Nc2cc(C(F)(F)F)ccn2)nc(-c2ccc(NC3CCN(C(=O)c4cccc5c4oc4ccccc45)CC3)nc2)c1 [Example 4-67] | 178 nM |
| Cc1cc(Nc2cc(C(F)(F)F)ccn2)nc(-c2ccc(NC3CCN(C(=O)Cc4ccccn4)CC3)nc2)c1 [Example 4-68] | 2 nM |
| Cc1cc(Nc2cc(C(F)(F)F)ccn2)nc(-c2ccc(NC3CCN(C(=O)Cc4ccc(-c5ccccc5)cc4)CC3)nc2)c1 [Example 4-69] | 138 nM |
| Cc1cc(Nc2cc(C(F)(F)F)ccn2)nc(-c2ccc(NC3CCN(C(=O)Cc4ccccc4C#N)CC3)nc2)c1 [Example 4-70] | 6 nM |
| Cc1cc(Nc2cc(C(F)(F)F)ccn2)nc(-c2ccc(NC3CCN(C(=O)c4ccccc4Cl)CC3)nc2)c1 [Example 4-71] | 21 nM |
| Cc1cc(Nc2cc(C(F)(F)F)ccn2)nc(-c2ccc(NC3CCN(C(=O)c4ccc(C(F)(F)F)cc4)CC3)nc2)c1 [Example 4-72] | 56 nM |
| Cc1cc(Nc2cc(C(F)(F)F)ccn2)nc(-c2ccc(NC3CCN(C(=O)Cc4ccc(Cl)cc4)CC3)nc2)c1 [Example 4-73] | 21 nM |
| Cc1cc(Nc2cc(C(F)(F)F)ccn2)nc(-c2ccc(NC3CCN(C(=O)Cc4cccc(Oc5ccccc5)c4)CC3)nc2)c1 [Example 4-74] | 57 nM |
| Cc1cc(Nc2cc(C(F)(F)F)ccn2)nc(-c2ccc(NC3CCN(C(=O)Cc4ccccc4C(F)(F)F)CC3)nc2)c1 [Example 4-75] | 39 nM |
| Cc1cc(Nc2cc(C(F)(F)F)ccn2)nc(-c2ccc(NC3CCN(C(=O)CCOc4ccccc4)CC3)nc2)c1 [Example 4-76] | 10 nM |
| Cc1cc(Nc2cc(C(F)(F)F)ccn2)nc(-c2ccc(NC3CCN(C(=O)Cc4cccnc4)CC3)nc2)c1 [Example 4-77] | 1 nM |
| Cc1cc(Nc2cc(C(F)(F)F)ccn2)nc(-c2ccc(NC3CCN(C(=O)c4ccc5nc(C)sc5c4)CC3)nc2)c1 [Example 4-78] | 4 nM |
| CC(=O)Nc1ccc(C(=O)N2CCC(Nc3ccc(-c4cc(C)cc(Nc5cc(C(F)(F)F)ccn5)n4)cn3)CC2)cc1 [Example 4-79] | 4 nM |
| Cc1cc(Nc2cc(C(F)(F)F)ccn2)nc(-c2ccc(NC3CCN(C(=O)COc4ccccc4)CC3)nc2)c1 [Example 4-80] | 28 nM |
| Cc1cc(Nc2cc(C(F)(F)F)ccn2)nc(-c2ccc(NC3CCN(C(=O)c4ccc(-c5ccccc5)cc4)CC3)nc2)c1 [Example 4-81] | 44 nM |
| Cc1cc(Nc2cc(C(F)(F)F)ccn2)nc(-c2ccc(NC3CCN(C(=O)Cc4cccc(C#N)c4)CC3)nc2)c1 [Example 4-82] | 3 nM |
| Cc1cc(Nc2cc(C(F)(F)F)ccn2)nc(-c2ccc(NC3CCN(C(=O)Cc4cccc(O)c4)CC3)nc2)c1 [Example 4-83] | 3 nM |
| Cc1cc(Nc2cc(C(F)(F)F)ccn2)nc(-c2ccc(NC3CCN(C(=O)c4ccncc4)CC3)nc2)c1 [Example 4-84] | 4 nM |
| Cc1cc(Nc2cc(C(F)(F)F)ccn2)nc(-c2ccc(NC3CCN(C(=O)c4cccc(C#N)c4)CC3)nc2)c1 [Example 4-85] | 7 nM |
| Cc1cc(Nc2cc(C(F)(F)F)ccn2)nc(-c2ccc(NC3CCN(C(=O)c4n[nH]c5ccccc45)CC3)nc2)c1 [Example 4-86] | 7 nM |
| COc1ccccc1C(=O)N1CCC(Nc2ccc(-c3cc(C)cc(Nc4cc(C(F)(F)F)ccn4)n3)cn2)CC1 [Example 4-87] | 6 nM |

| SMILES | IC50 |
| --- | --- |
| Cc1cc(Nc2cc(C(F)(F)F)ccn2)nc(-c2ccc(NC3CCN(C(=O)Cc4c(C)[nH]c5ccccc45)CC3)nc2)c1 [Example 4-88] | 11 nM |
| Cc1cc(Nc2cc(C(F)(F)F)ccn2)nc(-c2ccc(NC3CCN(C(=O)CCCN4CCCC4=O)CC3)nc2)c1 [Example 4-89] | 1 nM |
| Cc1cc(Nc2cc(C(F)(F)F)ccn2)nc(-c2ccc(NC3CCN(C(=O)c4ccc(C#N)cc4)CC3)nc2)c1 [Example 4-90] | 4 nM |
| Cc1cc(Nc2cc(C(F)(F)F)ccn2)nc(-c2ccc(NC3CCN(C(=O)Cc4ccc(C#N)cc4)CC3)nc2)c1 [Example 4-91] | 4 nM |
| Cc1cc(Nc2cc(C(F)(F)F)ccn2)nc(-c2ccc(NC3CCN(C(=O)c4cnc5ccccc5c4)CC3)nc2)c1 [Example 4-92] | 4 nM |
| COc1ccc(C(=O)N2CCC(Nc3ccc(-c4cc(C)cc(Nc5cc(C(F)(F)F)ccn5)n4)cn3)CC2)cc1 [Example 4-93] | 5 nM |
| Cc1cc(Nc2cc(C(F)(F)F)ccn2)nc(-c2ccc(NC3CCN(C(=O)c4cccnc4)CC3)nc2)c1 [Example 4-94] | 2 nM |
| Cc1cc(Nc2cc(C(F)(F)F)ccn2)nc(-c2ccc(NC3CCN(C(=O)Cc4ccccc4Cl)CC3)nc2)c1 [Example 4-95] | 12 nM |
| Cc1cc(Nc2cc(C(F)(F)F)ccn2)nc(-c2ccc(NC3CCN(C(=O)Cc4cccc(C(F)(F)F)c4)CC3)nc2)c1 [Example 4-96] | 103 nM |
| Cc1cc(Nc2cc(C(F)(F)F)ccn2)nc(-c2ccc(NC3CCN(C(=O)c4ccc5nc(C)c(C)nc5c4)CC3)nc2)c1 [Example 4-97] | 2 nM |
| Cc1cc(Nc2cc(C(F)(F)F)ccn2)nc(-c2ccc(NC3CCN(C(=O)c4ccc5[nH]ncc5c4)CC3)nc2)c1 [Example 4-98] | 5 nM |
| Cc1cc(Nc2cc(C(F)(F)F)ccn2)nc(-c2ccc(NC3CCN(C(=O)c4cn(C)c5ccccc45)CC3)nc2)c1 [Example 4-99] | 11 nM |
| Cc1cc(Nc2cc(C(F)(F)F)ccn2)nc(-c2ccc(NC3CCN(C(=O)Cc4ccc(O)c(Cl)c4)CC3)nc2)c1 [Example 4-100] | 9 nM |
| Cc1cc(Nc2cc(C(F)(F)F)ccn2)nc(-c2ccc(NC3CCN(C(=O)c4cccc(O)c4)CC3)nc2)c1 [Example 4-101] | 8 nM |
| Cc1cc(Nc2cc(C(F)(F)F)ccn2)nc(-c2ccc(NC3CCN(C(=O)Cc4cn(C)c5ccccc45)CC3)nc2)c1 [Example 4-102] | 7 nM |
| Cc1cc(Nc2cc(C(F)(F)F)ccn2)nc(-c2ccc(NC3CCN(C(=O)c4ccc5[nH]c(C)c(C)c5c4)CC3)nc2)c1 [Example 4-103] | 11 nM |
| Cc1cc(Nc2cc(C(F)(F)F)ccn2)nc(-c2ccc(NC3CCN(C(=O)c4ccccn4)CC3)nc2)c1 [Example 4-104] | 2 nM |
| Cc1cc(Nc2cc(C(F)(F)F)ccn2)nc(-c2ccc(NC3CCN(C(=O)c4cccc(Cl)c4)CC3)nc2)c1 [Example 4-105] | 245 nM |
| Cc1cc(Nc2cc(C(F)(F)F)ccn2)nc(-c2ccc(NC3CCN(C(=O)c4ccc(O)cc4)CC3)nc2)c1 [Example 4-106] | 6 nM |
| Cc1cc(Nc2cc(C(F)(F)F)ccn2)nc(-c2ccc(NC3CCN(C(=O)Cc4cccc(Cl)c4)CC3)nc2)c1 [Example 4-107] | 13 nM |
| Cc1cc(Nc2cc(C(F)(F)F)ccn2)nc(-c2ccc(NC3CCN(C(=O)Cc4ccc(O)cc4)CC3)nc2)c1 [Example 4-108] | 3 nM |

| SMILES | IC50 |
| --- | --- |
| COc1cccc(C(=O)N2CCC(Nc3ccc(-c4cc(C)cc(Nc5cc(C(F)(F)F)ccn5)n4)cn3)CC2)c1 [Example 4-109] | 6 nM |
| COc1cccc(CC(=O)N2CCC(Nc3ccc(-c4cc(C)cc(Nc5cc(C(F)(F)F)ccn5)n4)cn3)CC2)c1 [Example 4-110] | 6 nM |
| Cc1cc(Nc2cc(C(F)(F)F)ccn2)nc(-c2ccc(NC3CCN(C(=O)c4ccc5ncccc5c4)CC3)nc2)c1 [Example 4-111] | 3 nM |
| Cc1cc(Nc2cc(C(F)(F)F)ccn2)nc(-c2ccc(NC3CCN(C(=O)c4ccccc4C#N)CC3)nc2)c1 [Example 4-112] | 6 nM |
| Cc1cc(Nc2cc(C(F)(F)F)ccn2)nc(-c2ccc(NC3CCN(C(=O)c4cc5ccccc5n4C)CC3)nc2)c1 [Example 4-113] | 26 nM |
| Cc1cc(Nc2cc(C(F)(F)F)ccn2)nc(-c2ccc(NC3CCN(C(=O)c4ccc(Oc5ccccc5)cc4)CC3)nc2)c1 [Example 4-114] | 23 nM |
| Cc1cc(Nc2cc(C(F)(F)F)ccn2)nc(-c2ccc(NC3CCN(C(=O)c4ccc(F)c(O)c4)CC3)nc2)c1 [Example 4-115] | 4 nM |
| Cc1cc(Nc2cc(C(F)(F)F)ccn2)nc(-c2ccc(NC3CCN(C(=O)Cc4ccc(O)c(F)c4)CC3)nc2)c1 [Example 4-116] | 4 nM |
| Cc1cc(Nc2cc(C(F)(F)F)ccn2)nc(-c2ccc(NC3CCN(C(=O)c4cccc5c4-c4ccccc4C5)CC3)nc2)c1 [Example 4-117] | 141 nM |
| Cc1cc(Nc2cc(C(F)(F)F)ccn2)nc(-c2ccc(NC3CCN(C(=O)c4cc5ccccc5n4-c4ccccc4)CC3)nc2)c1 [Example 4-118] | 176 nM |
| Cc1cc(Nc2cc(C(F)(F)F)ccn2)nc(-c2ccc(NC3CCN(C(=O)c4cccc5c6c([nH]c45)CCCC6)CC3)nc2)c1 [Example 4-119] | 19 nM |
| Cc1cc(Nc2cc(C(F)(F)F)ccn2)nc(-c2ccc(NC3CCN(C(=O)c4cccc5[nH]ncc45)CC3)nc2)c1 [Example 4-120] | 9 nM |
| Cc1cc(Nc2cc(C(F)(F)F)ccn2)nc(-c2ccc(NC3CCN(C(=O)CCc4nc5ccccc5s4)CC3)nc2)c1 [Example 4-121] | 5 nM |
| Cc1cc(Nc2cc(C(F)(F)F)ccn2)nc(-c2ccc(NC3CCN(C(=O)c4cccc(-c5ccccc5)c4)CC3)nc2)c1 [Example 4-122] | 3 nM |
| Cc1cc(Nc2cc(C(F)(F)F)ccn2)nc(-c2ccc(N3CC[C@H](N)C3)nc2)c1 [Example 5, 6′-[(3S)-3-aminopyrrolidin-1-yl]-4-methyl-N-[4-(trifluoromethyl)pyridin-2-yl]-2,3′-bipyridin-6-amine] | 1 nM |
| Cc1cc(Nc2cc(C(F)(F)F)ccn2)nc(-c2ccc(N3CCCC(N)C3)nc2)c1 (centres unmarked) [Example 5-1] | 2 nM |
| Cc1cc(Nc2cc(C(F)(F)F)ccn2)nc(-c2ccc(NC3CCNCC3)nc2)c1 [Example 5-2] | 6 nM |
| Cc1cc(Nc2cc(C(F)(F)F)ccn2)nc(-c2ccc(C3(O)CCNCC3)nc2)c1 [Example 5-3] | 9 nM |
| CC(=O)N[C@H]1CCN(c2ccc(-c3cc(C)cc(Nc4cc(C(F)(F)F)ccn4)n3)cn2)C1 [Example 6, N-[(3S)-1-(4-methyl-6-{[4-(trifluoromethyl)pyridin-2-yl]amino}-2,3′-bipyridin-6′-yl)pyrrolidin-3-yl]acetamide] | 17 nM |
| Cc1cc(Nc2cc(C(F)(F)F)ccn2)nc(-c2ccc(N3CC[C@H](NC(=O)c4ccc5cc[nH]c5c4)C3)nc2)c1 [Example 6-1] | 17 nM |
